Experimental data published in publication PMC7066176, “Crystal structure of a lipin/Pah phosphatidic acid phosphatase” (Nature Communications, 2020).

Target: T1, Tt Pah2 (Tetrahymena thermophila, UniProt I7MFJ3)
T1 construct: gene TTHERM_00215970; residues 1-321 (lacks 14 C-terminal residues of 335), codon-optimised, E. coli; ppSUMO His-SUMO tag cleaved by ULP-1, or pET28 N-terminal His tag kept
T1 sequence (I7MFJ3 1-321): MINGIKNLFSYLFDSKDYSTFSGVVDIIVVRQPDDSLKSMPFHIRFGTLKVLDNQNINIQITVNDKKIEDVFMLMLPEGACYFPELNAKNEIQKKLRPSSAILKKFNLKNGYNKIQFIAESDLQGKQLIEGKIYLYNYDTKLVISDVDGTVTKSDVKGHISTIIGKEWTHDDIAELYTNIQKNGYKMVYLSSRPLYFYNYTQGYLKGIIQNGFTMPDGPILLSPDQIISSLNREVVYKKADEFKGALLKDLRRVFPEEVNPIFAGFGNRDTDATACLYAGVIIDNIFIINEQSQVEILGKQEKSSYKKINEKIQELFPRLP
Test: liposome sedimentation, SDS-PAGE
Type: binding
Conditions: 20 mol% POPA liposomes with 40 mol% POPE and POPC, pH 7.5, room temperature; preferential over neutral and POPS liposomes

## CCCCCCCC/C=C\CCCCCCCC(=O)O[C@H](COC(=O)CCCCCCCCCCCCCCC)COP(=O)(O)O [POPA]
  liposome sedimentation, SDS-PAGE: Tt Pah2 also preferentially interacted with PA-containing liposomes, in comparison with neutral or anionic PS-enriched
